The values below come from ChEMBL document CHEMBL1158844, “Two new isoflavones from Ceiba pentandra and their effect on cyclooxygenase-catalyzed prostaglandin biosynthesis” (J Nat Prod, 1998).

Test [1] has as its target T1, Prostaglandin G/H synthase 2 (Ovis aries, UniProt P79208).
T1 sequence (P79208 whole entry): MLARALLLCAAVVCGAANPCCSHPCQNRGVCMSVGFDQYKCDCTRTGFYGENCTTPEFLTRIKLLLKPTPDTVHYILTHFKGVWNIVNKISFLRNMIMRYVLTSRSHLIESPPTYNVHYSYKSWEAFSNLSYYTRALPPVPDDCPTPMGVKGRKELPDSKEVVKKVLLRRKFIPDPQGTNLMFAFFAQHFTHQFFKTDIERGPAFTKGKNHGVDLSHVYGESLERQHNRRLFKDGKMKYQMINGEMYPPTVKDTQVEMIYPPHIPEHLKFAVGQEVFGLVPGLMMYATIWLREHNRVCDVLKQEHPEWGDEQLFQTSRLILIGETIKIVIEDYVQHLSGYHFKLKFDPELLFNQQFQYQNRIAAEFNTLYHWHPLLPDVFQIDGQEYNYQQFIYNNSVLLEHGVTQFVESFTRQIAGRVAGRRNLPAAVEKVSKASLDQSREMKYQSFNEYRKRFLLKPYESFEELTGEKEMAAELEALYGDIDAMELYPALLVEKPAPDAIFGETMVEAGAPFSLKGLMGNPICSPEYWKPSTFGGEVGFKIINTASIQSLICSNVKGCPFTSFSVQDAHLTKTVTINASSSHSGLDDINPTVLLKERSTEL
Description: Inhibition of sheep placental cotyledons COX2-mediated prostaglandin production.

Test [2] deals with T2, Prostaglandin G/H synthase 1 (Bos taurus, UniProt O62664).
T2 sequence (O62664 whole entry): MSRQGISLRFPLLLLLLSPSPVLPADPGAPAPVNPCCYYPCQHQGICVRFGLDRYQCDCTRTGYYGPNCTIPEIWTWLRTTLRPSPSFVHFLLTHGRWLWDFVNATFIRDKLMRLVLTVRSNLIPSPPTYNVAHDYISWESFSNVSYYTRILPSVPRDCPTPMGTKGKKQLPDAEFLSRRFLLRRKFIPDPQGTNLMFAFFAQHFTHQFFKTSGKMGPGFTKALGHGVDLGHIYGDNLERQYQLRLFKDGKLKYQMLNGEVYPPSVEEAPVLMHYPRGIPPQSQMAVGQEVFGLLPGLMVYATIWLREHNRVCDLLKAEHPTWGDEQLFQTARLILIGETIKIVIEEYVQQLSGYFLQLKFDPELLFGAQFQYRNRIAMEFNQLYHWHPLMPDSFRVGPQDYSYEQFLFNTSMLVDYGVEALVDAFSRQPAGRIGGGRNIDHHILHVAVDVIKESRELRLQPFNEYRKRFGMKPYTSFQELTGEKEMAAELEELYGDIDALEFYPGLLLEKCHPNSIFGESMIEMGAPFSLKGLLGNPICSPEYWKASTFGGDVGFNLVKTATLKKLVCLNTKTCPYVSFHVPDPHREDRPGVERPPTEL
Description: Inhibition of bovine seminal vesicle microsomal COX1-mediated prostaglandin production. The format is microsomes.

The IC50 is the midpoint of a concentration-inhibition curve. The low end stands for greater potency in that assay, the high end for weaker potency in that assay. On to `COc1cc(O)c2c(=O)c(-c3cc(O)c(OC)c(OC)c3)coc2c1`, for which the IC50 in test [1] is 0.9 mM; in test [2], 97 µM.
Turning to `COc1cc(O)c2c(=O)c(-c3cc(OC)c(OC)c(O[C@@H]4O[C@H](CO)[C@@H](O)[C@H](O)[C@H]4O)c3)coc2c1`, the IC50 was 1.2 mM in test [1] and 381 µM in test [2].
In test [2], `Oc1cc(O)c2c(c1)O[C@H](c1ccc(O)c(O)c1)[C@@H](O)C2` [CIANIDANOL] showed an IC50 of 80 µM.
